Read-outs that look alike come from different tables or passages of the source.
What was measured:
Type in all cases: in vivo
wild oat (Avena fatua) = experiment: Test D postemergence plant response; conditions: for pest or weed control at 31 g/ha: 31 g ai/ha; for pest or weed control at 62 g/ha: 62 g ai/ha
Description: (§1) At the same time, plants selected from these crop and weed species and also kochia (Kochia scoparia), wild oat (Avena fatua), and chickweed (common chickweed, Stellaria media) were planted in pots containing Redi-Earth® planting medium (Scotts Company, 14111 Scottslawn Road, Marysville, Ohio 43041) comprising spaghnum peat moss, vermiculite, wetting agent and starter nutrients and treated with postemergence applications of test chemicals formulated in the same manner. Plants ranged in height from 2 to 18 cm (1- to 4-leaf stage) for postemergence treatments. Treated plants and controls were maintained in a greenhouse for 13 to 15 days, after which time all species were compared to controls and visually evaluated. Plant response ratings, summarized in Table D, are based on a scale of 0 to 100 where 0 is no effect and 100 is complete control. A dash (-) response means no test result.

[1] = tested on: chickweed (common chickweed, Stellaria media); experiment: Test D postemergence plant response; conditions: for pest or weed control at 31 g/ha: 31 g ai/ha; for pest or weed control at 62 g/ha: 62 g ai/ha
Description: as §1

kochia (Kochia scoparia) = experiment: Test D postemergence plant response; conditions: for pest or weed control at 31 g/ha: 31 g ai/ha; for pest or weed control at 62 g/ha: 62 g ai/ha
Description: as §1

[2] = tested on: wheat (Triticum aestivum); experiment: Test B pre-/postemergence plant response; conditions: for plant injury at 500 g/ha: 500 g ai/ha; for plant injury at 1000 g/ha: 1000 g ai/ha
Outline: (§2)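 Steps: plant seeds in loam soil–sand mix; spray soil preemergence, and in parallel spray 2–10 cm one- to two-leaf plants postemergence; hold ~10 days in greenhouse; visually rate injury against untreated controls (0 = no effect, 100 = complete control).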

corn (Zea mays) = experiment: Test B pre-/postemergence plant response; conditions: for Corn plant response rating (crop injury, 0 = no effect, 100 = complete kill) at 500 g/ha: 500 g ai/ha; for Corn plant response rating (crop injury, 0 = no effect, 100 = complete kill) at 1000 g/ha: 1000 g ai/ha
Outline: as §2

[3] = tested on: pigweed (Amaranthus retroflexus); experiment: Test B pre-/postemergence plant response; conditions: for pest or weed control at 500 g/ha: 500 g ai/ha; for pest or weed control at 1000 g/ha: 1000 g ai/ha
Outline: as §2

[4] = tested on: barnyardgrass (Echinochloa crus-galli); experiment: Test B pre-/postemergence plant response; conditions: for pest or weed control at 500 g/ha: 500 g ai/ha; for pest or weed control at 1000 g/ha: 1000 g ai/ha
Outline: as §2

[5] = tested on: giant foxtail (Setaria faberii); experiment: Test B pre-/postemergence plant response; conditions: for pest or weed control at 500 g/ha: 500 g ai/ha; for pest or weed control at 1000 g/ha: 1000 g ai/ha
Outline: as §2

[6] = tested on: ducksalad (Heteranthera limosa); experiment: Test C flooded paddy test plant response; conditions: Heteranthera limosa; Flood, 250 g ai/ha; scale of 0 to 100 where 0 is no effect and 100 is complete control; 13 to 15 days; read-out: Ducksalad plant response rating
Outline: (§3)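 Two-leaf stage → flood to 3 cm → compound into water → hold depth, greenhouse 13–15 d → visual score vs controls (0 none, 100 complete control).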

[7] = tested on: barnyardgrass (Echinochloa crus-galli); experiment: Test C flooded paddy test plant response; conditions: Echinochloa crus-galli; Flood, 250 g ai/ha; scale of 0 to 100 where 0 is no effect and 100 is complete control; 13 to 15 days; read-out: Barnyardgrass plant response rating
Outline: as §3

rice (Oryza sativa) = experiment: Test C flooded paddy test plant response; conditions: Oryza sativa; Flood, 250 g ai/ha; scale of 0 to 100 where 0 is no effect and 100 is complete control; 13 to 15 days; read-out: Rice plant response rating
Outline: as §3

[8] = tested on: small-flower umbrella sedge (Cyperus difformis); experiment: Test C flooded paddy test plant response; conditions: Cyperus difformis; Flood, 250 g ai/ha; scale of 0 to 100 where 0 is no effect and 100 is complete control; 13 to 15 days; read-out: Sedge, Umbrella plant response rating
Outline: as §3

[9] = Avena fatua, post-emergence, scale 0 to 100 (0 no effect, 100 complete control), read-out: Oat, Wild plant response rating
[10] = Stellaria media, post-emergence, scale 0 to 100 (0 no effect, 100 complete control), read-out: Chickweed plant response rating
[11] = Stellaria media, post-emergence, scale 0 to 100, 0 no effect, 100 complete control, read-out: Plant response rating, Chickweed
[12] = Bassia scoparia, post-emergence, scale 0 to 100 (0 no effect, 100 complete control), read-out: Kochia plant response rating
[13] = Bassia scoparia, post-emergence, scale 0 to 100, 0 no effect, 100 complete control, read-out: Plant response rating, Kochia
[14] = Preemergence, 125 g ai/ha, 0 to 100 scale (0 no effect, 100 complete control)

## FC(F)(F)c1cc(-c2ccccc2Oc2ncc(Cl)cn2)no1 [Compound 200, 5-chloro-2-[2-[5-(trifluoromethyl)-3-isoxazolyl]phenoxy]pyrimidine]
Wild oat (Avena fatua); 16 g ai/ha
  Plant response rating (scale 0 to 100), Oat, Wild: 20
Wild oat (Avena fatua); [9]
  pest or weed control at 31 g/ha: 30%
Wild oat (Avena fatua); Avena fatua, post-emergence, scale 0 to 100, 0 no effect, 100 complete control, read-out: Oat, Wild plant response rating
  pest or weed control at 62 g/ha: 30%
Wild oat (Avena fatua); Avena fatua, post-emergence, 125 g ai/ha, scale 0 to 100, 0 no effect, 100 complete control, read-out: Plant response rating, Oat, Wild
  pest or weed control at 125 g/ha: 55%
[1]; 16 g ai/ha
  Plant response rating (scale 0 to 100), Chickweed: 60
[1]; [10]
  pest or weed control at 31 g/ha: 95%
[1]; [11]
  pest or weed control at 62 g/ha: 100%
[1]; Stellaria media, post-emergence, 125 g ai/ha, scale 0 to 100, 0 no effect, 100 complete control, read-out: Plant response rating, Chickweed
  pest or weed control at 125 g/ha: 100%
Kochia (Kochia scoparia); 16 g ai/ha
  Plant response rating (scale 0 to 100), Kochia: 95
Kochia (Kochia scoparia); [12]
  pest or weed control at 31 g/ha: 100%
Kochia (Kochia scoparia); [13]
  pest or weed control at 62 g/ha: 100%
Kochia (Kochia scoparia); Bassia scoparia, post-emergence, 125 g ai/ha, scale 0 to 100, 0 no effect, 100 complete control, read-out: Plant response rating, Kochia
  pest or weed control at 125 g/ha: 100%
[2]; [14]
  Wheat plant response rating: 20
[2]; Triticum aestivum, post-emergence, 240 h, 125 g ai/ha, postemergence, 0 to 100 scale, 0 no effect, 100 complete control, read-out: Plant response rating, Wheat
  plant injury at 125 g/ha: 60%
[2]; Triticum aestivum, post-emergence, 240 h, postemergence, 0 to 100 scale, 0 no effect, 100 complete control, read-out: Plant response rating, Wheat
  plant injury at 500 g/ha: 100%
[2]; Triticum aestivum, pre-emergence, 240 h, Preemergence, 0 to 100 scale where 0 is no effect and 100 is complete control, read-out: Plant response rating, Wheat
  plant injury at 500 g/ha: 90%
Corn (Zea mays); [14]
  Corn plant response rating: 20
Corn (Zea mays); Zea mays, post-emergence, 240 h, 125 g ai/ha, postemergence, 0 to 100 scale, 0 no effect, 100 complete control
  Corn plant response rating (crop injury, 0 = no effect, 100 = complete kill) at 125 g/ha: 50%
Corn (Zea mays); Zea mays, post-emergence, 240 h, postemergence, 0 to 100 scale, 0 no effect, 100 complete control
  Corn plant response rating (crop injury, 0 = no effect, 100 = complete kill) at 500 g/ha: 90%
Corn (Zea mays); Zea mays, pre-emergence, 240 h, Preemergence, 0 to 100 scale where 0 is no effect and 100 is complete control
  Corn plant response rating (crop injury, 0 = no effect, 100 = complete kill) at 500 g/ha: 100%
[3]; Amaranthus retroflexus, post-emergence, 240 h, 125 g ai/ha, postemergence, 0 to 100 scale, 0 no effect, 100 complete control, read-out: Plant response rating, Pigweed
  pest or weed control at 125 g/ha: 100%
[3]; Amaranthus retroflexus, post-emergence, 240 h, postemergence, 0 to 100 scale, 0 no effect, 100 complete control, read-out: Plant response rating, Pigweed
  pest or weed control at 500 g/ha: 100%
[3]; Amaranthus retroflexus, pre-emergence, 240 h, Preemergence, 0 to 100 scale where 0 is no effect and 100 is complete control, read-out: Plant response rating, Pigweed
  pest or weed control at 500 g/ha: 100%
[3]; [14]
  Pigweed plant response rating: 100
[4]; Echinochloa crus-galli, post-emergence, 240 h, 125 g ai/ha, postemergence, 0 to 100 scale, 0 no effect, 100 complete control, read-out: Plant response rating, Barnyardgrass
  pest or weed control at 125 g/ha: 90%
[4]; Echinochloa crus-galli, post-emergence, 240 h, postemergence, 0 to 100 scale, 0 no effect, 100 complete control, read-out: Plant response rating, Barnyardgrass
  pest or weed control at 500 g/ha: 100%
[4]; Echinochloa crus-galli, pre-emergence, 240 h, Preemergence, 0 to 100 scale where 0 is no effect and 100 is complete control, read-out: Plant response rating, Barnyardgrass
  pest or weed control at 500 g/ha: 100%
[4]; [14]
  Barnyardgrass plant response rating: 100
[5]; [14]
  Foxtail, Giant plant response rating: 100
[5]; Setaria faberi, post-emergence, 240 h, 125 g ai/ha, postemergence, 0 to 100 scale, 0 no effect, 100 complete control, read-out: Plant response rating, Foxtail, Giant
  pest or weed control at 125 g/ha: 100%
[5]; Setaria faberi, post-emergence, 240 h, postemergence, 0 to 100 scale, 0 no effect, 100 complete control, read-out: Plant response rating, Foxtail, Giant
  pest or weed control at 500 g/ha: 100%
[5]; Setaria faberi, pre-emergence, 240 h, Preemergence, 0 to 100 scale where 0 is no effect and 100 is complete control, read-out: Plant response rating, Foxtail, Giant
  pest or weed control at 500 g/ha: 100%
[6]
  pest or weed control at 250 g/ha: 100%
[7]
  pest or weed control at 250 g/ha: 90%
Rice (Oryza sativa)
  plant injury at 250 g/ha: 35%
[8]
  pest or weed control at 250 g/ha: 100%

## FC(F)c1cc(-c2ccccc2Oc2ncc(Cl)cn2)no1 [Compound 35, 5-chloro-2-[2-[5-(difluoromethyl)-3-isoxazolyl]phenoxy]pyrimidine]
Wild oat (Avena fatua); 8 g ai/ha
  Plant response rating (scale 0 to 100), Oat, Wild: 5
Wild oat (Avena fatua); Avena fatua, post-emergence, 16 g ai/ha, scale 0 to 100 (0 no effect, 100 complete control), read-out: Oat, Wild plant response rating
  pest or weed control at 16 g/ha: 10%
Wild oat (Avena fatua); [9]
  pest or weed control at 31 g/ha: 40%
Wild oat (Avena fatua); Avena fatua, post-emergence, scale 0 to 100, 0 no effect, 100 complete control, read-out: Plant response rating, Oat, Wild
  pest or weed control at 62 g/ha: 45%
[1]; 8 g ai/ha
  Plant response rating (scale 0 to 100), Chickweed: 50
[1]; Stellaria media, post-emergence, 16 g ai/ha, scale 0 to 100 (0 no effect, 100 complete control), read-out: Chickweed plant response rating
  pest or weed control at 16 g/ha: 85%
[1]; [10]
  pest or weed control at 31 g/ha: 85%
[1]; [11]
  pest or weed control at 62 g/ha: 100%
Kochia (Kochia scoparia); 8 g ai/ha
  Plant response rating (scale 0 to 100), Kochia: 95
Kochia (Kochia scoparia); Bassia scoparia, post-emergence, 16 g ai/ha, scale 0 to 100 (0 no effect, 100 complete control), read-out: Kochia plant response rating
  pest or weed control at 16 g/ha: 100%
Kochia (Kochia scoparia); [12]
  pest or weed control at 31 g/ha: 100%
Kochia (Kochia scoparia); [13]
  pest or weed control at 62 g/ha: 100%
[2]; Triticum aestivum, post-emergence, 240 h, Postemergence, 0 to 100 scale (0 no effect, 100 complete control), read-out: Plant response rating, Wheat
  plant injury at 1000 g/ha: 80%
[2]; Triticum aestivum, pre-emergence, 240 h, Preemergence, 0 to 100 scale (0 no effect, 100 complete control), read-out: Plant response rating, Wheat
  plant injury at 1000 g/ha: 60%
Corn (Zea mays); Zea mays, post-emergence, 240 h, Postemergence, 0 to 100 scale (0 no effect, 100 complete control)
  Corn plant response rating (crop injury, 0 = no effect, 100 = complete kill) at 1000 g/ha: 90%
Corn (Zea mays); Zea mays, pre-emergence, 240 h, Preemergence, 0 to 100 scale (0 no effect, 100 complete control)
  Corn plant response rating (crop injury, 0 = no effect, 100 = complete kill) at 1000 g/ha: 30%
[3]; Amaranthus retroflexus, post-emergence, 240 h, Postemergence, 0 to 100 scale (0 no effect, 100 complete control), read-out: Plant response rating, Pigweed
  pest or weed control at 1000 g/ha: 100%
[3]; Amaranthus retroflexus, pre-emergence, 240 h, Preemergence, 0 to 100 scale (0 no effect, 100 complete control), read-out: Plant response rating, Pigweed
  pest or weed control at 1000 g/ha: 10%
[4]; Echinochloa crus-galli, post-emergence, 240 h, Postemergence, 0 to 100 scale (0 no effect, 100 complete control), read-out: Plant response rating, Barnyardgrass
  pest or weed control at 1000 g/ha: 100%
[4]; Echinochloa crus-galli, pre-emergence, 240 h, Preemergence, 0 to 100 scale (0 no effect, 100 complete control), read-out: Plant response rating, Barnyardgrass
  pest or weed control at 1000 g/ha: 100%
[5]; Setaria faberi, post-emergence, 240 h, Postemergence, 0 to 100 scale (0 no effect, 100 complete control), read-out: Plant response rating, Foxtail, Giant
  pest or weed control at 1000 g/ha: 90%
[5]; Setaria faberi, pre-emergence, 240 h, Preemergence, 0 to 100 scale (0 no effect, 100 complete control), read-out: Plant response rating, Foxtail, Giant
  pest or weed control at 1000 g/ha: 100%
[6]
  pest or weed control at 250 g/ha: 100%
[7]
  pest or weed control at 250 g/ha: 65%
Rice (Oryza sativa)
  plant injury at 250 g/ha: 80%
[8]
  pest or weed control at 250 g/ha: 100%

— patent publication US10131652B2, “Pyrimidinyloxy benzene derivatives as herbicides” (E. I. DU PONT DE NEMOURS AND COMPANY, priority 2014, dated 2018)
